Reference: patent US10631539B2, “Fungicidal compositions” (SYNGENTA PARTICIPATIONS AG, priority 2015, dated 2020)

These molecules were tested on Phakopsora pachyrhizi (triazole tolerant soybean rust strain) (assay: Phakopsora pachyrhizi on soybean, preventive treatment). Conditions: foliar, 264 h, 1 day preventive, leaf discs evaluated 11 days after application, compared to untreated control, read-out: disease control.
Format: in vivo
Description: Phakopsora pachyrhizi on Soybean, Preventive Treatment
The compound or mixture composition activity was tested under 1 day preventive conditions. Soybean plants with a fully enfolded first trifoliate leaf were sprayed with a track sprayer and 50 l/ha spray volume with the test compounds or mixture composition, either solo or in tankmix as shown in the table below.
1 day after application leaf discs were cut from the first trifoliate leaf and placed in multiwell plates on water-agar. 5 leaf discs per treatment where infested with spores of a triazole tolerant soybean rust strain. The multiwell plates where sealed and placed in an incubator 48 h in darkness and 12 h light/dark cycle afterwards. Rust infestation on leaf discs was evaluated visually 11 days after application and average activity calculated in relation to disease severity on untreated check leaf discs.
Molecule CCCOC[C@H](C)Oc1nc(C)c(/N=C/N(C)CC)cc1Br [Compound 67.002, N′-[5-bromo-2-methyl-6-[(1S)-1-methyl-2-propoxy-ethoxy]-3-pyridyl]-N-ethyl-N-methyl-formamidine] has a pest or weed control at 200 ppm of no less than 80%.

The molecules below were run on Puccinia recondita f. sp. tritici (assay: Puccinia recondita f. sp. tritici / wheat / leaf disc preventative (brown rust)). Conditions: foliar, wheat leaf disks cv. Kanzler, inoculated 1 day after application, compared to untreated control, read-out: disease control.
Format: in vivo
Description: Puccinia recondita f. sp. tritici/wheat/leaf disc preventative (brown rust)
Wheat leaf segments cv. Kanzler were placed on agar in multiwell plates (24-well format) and sprayed with the formulated test compound or mixture composition diluted in water. The leaf disks were inoculated with a spore suspension of the fungus 1 day after application. The inoculated leaf segments were incubated at 19° C. and 75% rh under a light regime of 12 h light/12 h darkness in a climate cabinet and the activity of a compound or mixture composition was assessed as percent disease control compared to untreated when an appropriate level of disease damage appears in untreated check leaf segments (7-9 days after application).
CCCOC[C@H](C)Oc1nc(C)c(/N=C/N(C)CC)cc1Br [Compound 67.002, N′-[5-bromo-2-methyl-6-[(1S)-1-methyl-2-propoxy-ethoxy]-3-pyridyl]-N-ethyl-N-methyl-formamidine] gave a pest or weed control at 200 ppm of no less than 80%.

Each molecule was assayed on Puccinia recondita f. sp. tritici (assay: Puccinia recondita f. sp. tritici / wheat / leaf disc curative (brown rust)). Conditions: foliar, 24 h, wheat leaf disks cv. Kanzler, applied 1 day after inoculation (curative), compared to untreated control, read-out: disease control.
Format: in vivo
Description: Puccinia recondita f. Sp. Tritici/Wheat/Leaf Disc Curative (Brown Rust)
Wheat leaf segments cv. Kanzler are placed on agar in multiwell plates (24-well format). The leaf segments are inoculated with a spore suspension of the fungus. Plates were stored in darkness at 19° C. and 75% rh. The formulated test compound or mixture composition diluted in water was applied 1 day after inoculation. The leaf segments were incubated at 19° C. and 75% rh under a light regime of 12 h light/12 h darkness in a climate cabinet and the activity of a compound or mixture composition was assessed as percent disease control compared to untreated when an appropriate level of disease damage appears in untreated check leaf segments (6-8 days after application).
CCCOC[C@H](C)Oc1nc(C)c(/N=C/N(C)CC)cc1Br [Compound 67.002, N′-[5-bromo-2-methyl-6-[(1S)-1-methyl-2-propoxy-ethoxy]-3-pyridyl]-N-ethyl-N-methyl-formamidine] gave a pest or weed control at 200 ppm of no less than 80%. With CCCOC[C@@H](C)Oc1nc(C)c(/N=C/N(C)CC)cc1Br [Compound 67.003, N′-[5-bromo-2-methyl-6-[(1R)-1-methyl-2-propoxy-ethoxy]-3-pyridyl]-N-ethyl-N-methyl-formamidine] the pest or weed control at 200 ppm was no less than 80%. With CCCOCC(C)Oc1nc(C)c(/N=C/N(C)CC)cc1C#N (stereo not shown) [Compound 67.007, N′-[5-cyano-2-methyl-6-(1-methyl-2-propoxy-ethoxy)-3-pyridyl]-N-ethyl-N-methyl-formamidine] the pest or weed control at 200 ppm was no less than 80%. In the case of CCCOCC(C)Oc1nc(C)c(/N=C/N(C)CC)cc1C(F)F (stereo not shown) [Compound 67.009, N′-[5-(difluoromethyl)-2-methyl-6-(1-methyl-2-propoxy-ethoxy)-3-pyridyl]-N-ethyl-N-methyl-formamidine], the pest or weed control at 200 ppm is reported as no less than 80%. In the case of CCCOCC(C)Oc1nc(C)c(/N=C/N(C)CC)cc1OC(F)F (stereo not shown) [Compound 67.010], the pest or weed control at 200 ppm is reported as no less than 80%. CCCOCC(C)Oc1nc(C)c(/N=C/N(C)CC)cc1C (stereo not shown) [Compound 67.011, N′-[2,5-dimethyl-6-(1-methyl-2-propoxy-ethoxy)-3-pyridyl]-N-ethyl-N-methyl-formamidine] showed a pest or weed control at 200 ppm of no less than 80%. Work on CCCOCC(C)Oc1ccc(/N=C/N(C)CC)c(C)n1 (stereo not shown) [Compound 67.012] yielded a pest or weed control at 200 ppm of no less than 80%. In the case of CCCOCC(C)Oc1nc(C)c(/N=C/N(C)CC)cc1Br (stereo not shown) [Compound 67.013, N′-[5-bromo-2-methyl-6-(1-methyl-2-propoxy-ethoxy)-3-pyridyl]-N-ethyl-N-methyl-formamidine], the pest or weed control at 200 ppm is reported as no less than 80%. In the case of C=CCOCC(C)Oc1nc(C)c(/N=C/N(C)CC)cc1Cl (stereo not shown) [Compound 67.014, N′-[6-(2-allyloxy-1-methyl-ethoxy)-5-chloro-2-methyl-3-pyridyl]-N-ethyl-N-methyl-formamidine], the pest or weed control at 200 ppm is reported as no less than 80%. CCCOCC(C)Oc1nc(C)c(/N=C/N(C)CC)cc1Cl (stereo not shown) [Compound 67.015, N′-[5-chloro-2-methyl-6-(1-methyl-2-propoxy-ethoxy)-3-pyridyl]-N-ethyl-N-methyl-formamidine] gave a pest or weed control at 200 ppm of no less than 80%. Work on C=CCOCC(COC)Oc1nc(C)c(/N=C/N(C)CC)cc1Br (stereo not shown) [Compound 67.016] yielded a pest or weed control at 200 ppm of no less than 80%. C=CCOCC(C)Oc1nc(C)c(/N=C/N(C)CC)cc1C#N (stereo not shown) [Compound 67.017] gave a pest or weed control at 200 ppm of no less than 80%. CCCOCC(C)Oc1nc(C)c(/N=C/N(C)C(C)C)cc1Br (stereo not shown) [Compound 67.018, N′-[5-bromo-2-methyl-6-(1-methyl-2-propoxy-ethoxy)-3-pyridyl]-N-isopropyl-N-methyl-formamidine] showed a pest or weed control at 200 ppm of no less than 80%. In the case of CCN(C)/C=N/c1cc(C#N)c(OC(C)COc2cccc(C(F)(F)F)c2)nc1C (stereo not shown) [Compound 67.020], the pest or weed control at 200 ppm is reported as no less than 80%. CCN(C)/C=N/c1cc(C#N)c(OC(C)COc2ccc(Cl)cc2)nc1C (stereo not shown) [Compound 67.021] was tested, and the pest or weed control at 200 ppm was no less than 80%. With CCN(C)/C=N/c1cc(C#N)c(OC(C)COc2ccccc2)nc1C (stereo not shown) [Compound 67.022] the pest or weed control at 200 ppm was no less than 80%. For CCN(C)/C=N/c1cc(Cl)c(OC(C)COc2cccc(C(F)(F)F)c2)nc1C (stereo not shown) [Compound 67.023], the pest or weed control at 200 ppm was no less than 80%. Work on CCN(C)/C=N/c1cc(Cl)c(OC(C)COc2ccc(Cl)cc2)nc1C (stereo not shown) [Compound 67.024] yielded a pest or weed control at 200 ppm of no less than 80%. CCN(C)/C=N/c1cc(Cl)c(OC(C)COc2ccccc2)nc1C (stereo not shown) [Compound 67.025] gave a pest or weed control at 200 ppm of no less than 80%. With CCN(C)/C=N/c1cc(Br)c(OC(C)COc2ccc(Cl)cc2)nc1C (stereo not shown) [Compound 67.026] the pest or weed control at 200 ppm was no less than 80%. In the case of CCN(C)/C=N/c1cc(Br)c(OC(C)COc2cccc(C(F)(F)F)c2)nc1C (stereo not shown) [Compound 67.027], the pest or weed control at 200 ppm is reported as no less than 80%. In the case of CCN(C)/C=N/c1cc(Br)c(OC(C)COc2ccccc2)nc1C (stereo not shown) [Compound 67.028], the pest or weed control at 200 ppm is reported as no less than 80%.

These molecules were tested on Blumeria graminis f. Sp. Tritici (Erysiphe qraminis f. Sp. Tritici) (assay: Blumeria graminis f. sp. tritici / wheat / leaf disc preventative (powdery mildew on wheat)). Conditions: foliar, wheat leaf disks cv. Kanzler, inoculated 1 day after application, compared to untreated control, read-out: disease control.
Format: in vivo
Description: Blumeria graminis f. Sp. Tritici (Erysiphe qraminis f. Sp. Tritici)/Wheat/Leaf Disc Preventative (Powdery Mildew on Wheat)
Wheat leaf segments cv. Kanzler were placed on agar in a multiwell plate (24-well format) and sprayed with the formulated test compound or mixture composition diluted in water. The leaf disks were inoculated by shaking powdery mildew infected plants above the test plates 1 day after application. The inoculated leaf disks were incubated at 20° C. and 60% rh under a light regime of 24 h darkness followed by 12 h light/12 h darkness in a climate chamber and the activity of a compound or mixture composition was assessed as percent disease control compared to untreated when an appropriate level of disease damage appears on untreated check leaf segments (6-8 days after application).
With CCCOC[C@H](C)Oc1nc(C)c(/N=C/N(C)CC)cc1Br [Compound 67.002, N′-[5-bromo-2-methyl-6-[(1S)-1-methyl-2-propoxy-ethoxy]-3-pyridyl]-N-ethyl-N-methyl-formamidine] the pest or weed control at 200 ppm was no less than 80%.
